Laboratory results: patent publication US5008268A, “2-aminopyrimidinone derivatives” (Janssen Pharmaceutica N.V., priority 1989, dated 1991)

What was measured:
Type in all cases: in vivo
peripheral serotonin = assay: Combined apomorphine, tryptamine and norepinephrine test in rats: tryptamine-induced hyperaemia of the ears; conditions: Rattus norvegicus, dose protecting half of tested animals from peripheral serotonin-induced phenomena, in particular hyperaemia of the ears
Text: (§1) Int. Pharmacodyn. Ther. 251, 39-51 (1981).
Pharmacodyn, 227, 238-253 (1977). Said test provides an empirical evaluation of the relative specificity with which drugs may effect particular neurotransmitters centrally (CNS) as well as peripherally. […] The ED50 values of the tested compounds are listed in column 3 of table 4 and represent the dose in mg per kg bodyweight which protects half of the tested animals from peripheral serotonin-induced phenomena, in particular hyperaemia of the ears.

[1] = system: compound 48/80-induced gastric lesions; assay: Protection of rats from compound 48/80-induced gastric lesions (antiserotoninergic); conditions: Rattus norvegicus, dose at which stomach distention and glandular-area lesions are completely absent in half of the rats
Text: as §1
The ED50 values of the tested compounds are listed in the second column of table 4. Said ED50 values are the doses in mg per kg bodyweight at which the distention of the stomach as well as lesions in the glandular area of the stomach are completely absent in half of the test rats.

[2] = system: compound 48/80-induced lethality; assay: Protection of rats from compound 48/80-induced lethality (antihistaminic); conditions: Rattus norvegicus, dose protecting 50% of tested animals against compound 48/80-induced lethality
Text: as §1
The ED50 values of the tested compounds of formula (I) are listed in the first column of table 4. Said ED50 values are the values in mg per kg bodyweight at which the tested compounds protect 50% of the tested animals against compound 48/80-induced lethality.

Compound	ED50 (peripheral serotonin) [mg/kg]	ED50 [1] [mg/kg]	ED50 [2] [mg/kg]
Cc1ccc(Cn2c(NC3CCN(CCc4c(C)nc(NCc5ccccc5)n(C)c4=O)CC3)nc3cccnc32)o1 [Compound 3]	0.005	0.08	
Cc1nc(N)n(C)c(=O)c1CCN1CCC(Nc2nc3ccccc3n2Cc2ccc(F)cc2)CC1 [Compound 7]	0.01	0.02	
Cc1nc(N)n(C)c(=O)c1CCN1CCC(Cc2nc3ccccc3n2Cc2ccc(F)cc2)CC1 [Compound 11, 2-amino-5-[2-[4-[[1-[(4-fluorophenyl)methyl]-1H-benzimidazol-2-yl]-methyl]-1-piperidinyl]ethyl]-3,6-dimethyl-4(3H)pyrimidinone]	0.005	0.16	0.02
Cc1nc(N)n(C)c(=O)c1CCN1CCC(Nc2nc3ccccc3n2Cc2ccc(CO)o2)CC1 [Compound 15, 2-amino-5-[2-[4-[[1-[[5-hydroxymethyl-2-furanyl]methyl]-1H-benzimidazol-2-yl]amino]-1-piperidinyl]ethyl]-3,6-dimethyl-4(3H)-pyrimidinone]	0.002	0.005	0.02
Cc1nc(N)n(C)c(=O)c1CCN1CCC(Nc2nc3cccnc3n2Cc2ccc(CO)o2)CC1 [Compound 16]	0.005	0.16	0.01
CNc1nc(C)c(CCN2CCC(Nc3nc4ccccc4n3Cc3ccc(CO)o3)CC2)c(=O)n1C [Compound 17, 5-[2-[4-[[1-[[5-(hydroxymethyl)-2-furanyl]methyl]-1H-benzimidazol-2-yl]amino]-1-piperidinyl]ethyl]-3,6-dimethyl-2(methylamino)-4(3H)-pyrimidinone]	0.002	0.01	0.02
Cc1nc(NCc2ccccn2)n(C)c(=O)c1CCN1CCC(Cc2nc3ccccc3n2Cc2ccc(F)cc2)CC1 [Compound 21]	0.01	0.08	0.04
CCNc1nc(C)c(CCN2CCC(Nc3nc4ccccc4n3Cc3ccc(CO)o3)CC2)c(=O)n1C [Compound 29]	0.005	0.16	0.08
CCOCCNc1nc(C)c(CCN2CCC(Nc3nc4ccccc4n3Cc3ccc(CO)o3)CC2)c(=O)n1C [Compound 30]	0.02	0.02	0.04
CCCCNc1nc(C)c(CCN2CCC(Nc3nc4cccnc4n3Cc3ccc(C)o3)CC2)c(=O)n1C [Compound 34]	0.02	0.08	0.04
Cc1nc(NCc2ccccn2)n(C)c(=O)c1CCN1CCC(Nc2nc3ccccc3n2Cc2ccc(CO)o2)CC1 [Compound 39]	0.005	0.04	0.08
CCCNc1nc(C)c(CCN2CCC(Nc3nc4ccccc4n3Cc3ccc(CO)o3)CC2)c(=O)n1C [Compound 43, 5-[2-[4-[[1-[[5-(hydroxymethyl)-2-furanyl]methyl]-1H-benzimidazol-2-yl]amino]-1-piperidinyl]ethyl]-3,6-dimethyl-2-(propylamino)-4(3H)-pyrimidinone]	0.005	0.04	0.08
Cc1nc2n(C)c(C)cn2c(=O)c1CCN1CCC(Cc2nc3ccccc3n2Cc2ccc(F)cc2)CC1 [Compound 50]	0.02	0.16	0.04
CC1=NN(C)c2nc(C)c(CCN3CCC(Cc4nc5ccccc5n4Cc4ccc(F)cc4)CC3)c(=O)n2C1 [Compound 58]	0.02	0.16	0.04
Cc1ccc(Cn2c(NC3CCN(CCc4c(C)nc5n(C)nc(C)n5c4=O)CC3)nc3cccnc32)o1 [Compound 67]	0.08	0.08	0.04
Cc1nc2n(C)ccn2c(=O)c1CCN1CCC(Nc2nc3ccccc3n2Cc2ccc(CO)o2)CC1 [Compound 68]	0.04	0.04	
Cc1nc2n(C)c(C)cn2c(=O)c1CCN1CCC(Nc2nc3ccccc3n2Cc2ccc(CO)o2)CC1 [Compound 71]	0.01	0.04	
Cc1nc2n(C)ccn2c(=O)c1CCN1CCC(Cc2nc3ccccc3n2Cc2ccc(CO)o2)CC1 [Compound 79]	0.02	0.04	
Cc1nc2ccccn2c(=O)c1CCN1CCC(Nc2nc3cccnc3n2Cc2ccco2)CC1 [reference, 3-[2-[4-[[3-(2-furanylmethyl)-3H-imidazo[4,5-b]pyridin-2-yl]amino]-1-piperidinyl]ethyl]-2-methyl-4H-pyrido[1,2-a]pyrimidin-4-one, reference compound]	0.63	0.63	0.08
